Measurements reported in patent publication US11324708B1 (UNION therapeutics A/S, priority 2020, dated 2022).

Legend:
SARS-CoV-2 = SARS-CoV-2 in Vero E6 cells; cited from earlier work
[1] = tested on: ATCC 29213, MRSA 434844 and S. aureus Newman; assay: Spot test on LB agar, statements for all three strains; assay type: cell-based; conditions: for bacterial load in repeated spot test, API in DMSO: only the highest concentrations (niclosamide 100 μg/mL, oxyclozanide 40 μg/mL; 200×-400× MIC of Niclo, 180× MIC Oxy)
Method: Following incubation, the formed colonies were counted. […] Duplicates were performed.
As both positive controls were negative further the experiment was repeated using different concentrations in a spot test using the same methodology described above.
In this experiment the negative control was the bacterial suspension only.

[2] = oral 2 g/day dose
SARS-CoV = conditions: Vero E6 cells; read-out: EC50 of SARS-CoV replication; cited from earlier work
asthmatic mice = conditions: niclosamide dissolved in corn oil, I.P. injection; cited from earlier work
TMEM16A = molecular target: T1, TMEM16A (Homo sapiens, UniProt Q5XXA6); conditions: cited from earlier work
T1 sequence (Q5XXA6 1-986): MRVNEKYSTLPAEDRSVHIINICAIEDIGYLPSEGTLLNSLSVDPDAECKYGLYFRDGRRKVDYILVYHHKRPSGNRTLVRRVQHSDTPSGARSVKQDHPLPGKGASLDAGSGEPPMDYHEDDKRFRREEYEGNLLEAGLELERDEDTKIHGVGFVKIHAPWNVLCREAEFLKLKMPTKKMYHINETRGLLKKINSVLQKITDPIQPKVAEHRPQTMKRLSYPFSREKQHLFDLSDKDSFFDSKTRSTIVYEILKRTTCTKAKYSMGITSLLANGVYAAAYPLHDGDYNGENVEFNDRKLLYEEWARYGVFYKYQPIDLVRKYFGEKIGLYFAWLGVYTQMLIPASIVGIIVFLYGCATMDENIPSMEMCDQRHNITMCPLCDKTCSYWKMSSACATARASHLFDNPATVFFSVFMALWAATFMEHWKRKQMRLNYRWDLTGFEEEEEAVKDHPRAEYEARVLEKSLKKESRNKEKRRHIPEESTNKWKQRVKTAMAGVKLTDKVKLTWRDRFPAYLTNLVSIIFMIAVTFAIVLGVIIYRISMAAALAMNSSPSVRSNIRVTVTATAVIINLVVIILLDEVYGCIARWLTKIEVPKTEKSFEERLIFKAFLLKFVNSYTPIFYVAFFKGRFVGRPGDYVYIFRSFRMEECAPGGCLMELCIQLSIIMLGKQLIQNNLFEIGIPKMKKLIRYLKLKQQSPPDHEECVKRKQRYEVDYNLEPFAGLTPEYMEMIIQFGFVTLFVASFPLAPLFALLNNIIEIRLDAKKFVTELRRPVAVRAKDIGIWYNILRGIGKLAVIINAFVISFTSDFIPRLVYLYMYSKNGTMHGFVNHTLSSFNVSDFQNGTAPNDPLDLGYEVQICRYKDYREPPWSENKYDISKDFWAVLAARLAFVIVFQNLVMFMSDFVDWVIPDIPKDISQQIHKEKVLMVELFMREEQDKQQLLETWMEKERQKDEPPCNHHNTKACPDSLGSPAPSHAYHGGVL

TMEM 116F = molecular target: T2, TMEM 116F (Homo sapiens, UniProt Q4KMQ2); conditions: cited from earlier work
T2 sequence (Q4KMQ2 1-910): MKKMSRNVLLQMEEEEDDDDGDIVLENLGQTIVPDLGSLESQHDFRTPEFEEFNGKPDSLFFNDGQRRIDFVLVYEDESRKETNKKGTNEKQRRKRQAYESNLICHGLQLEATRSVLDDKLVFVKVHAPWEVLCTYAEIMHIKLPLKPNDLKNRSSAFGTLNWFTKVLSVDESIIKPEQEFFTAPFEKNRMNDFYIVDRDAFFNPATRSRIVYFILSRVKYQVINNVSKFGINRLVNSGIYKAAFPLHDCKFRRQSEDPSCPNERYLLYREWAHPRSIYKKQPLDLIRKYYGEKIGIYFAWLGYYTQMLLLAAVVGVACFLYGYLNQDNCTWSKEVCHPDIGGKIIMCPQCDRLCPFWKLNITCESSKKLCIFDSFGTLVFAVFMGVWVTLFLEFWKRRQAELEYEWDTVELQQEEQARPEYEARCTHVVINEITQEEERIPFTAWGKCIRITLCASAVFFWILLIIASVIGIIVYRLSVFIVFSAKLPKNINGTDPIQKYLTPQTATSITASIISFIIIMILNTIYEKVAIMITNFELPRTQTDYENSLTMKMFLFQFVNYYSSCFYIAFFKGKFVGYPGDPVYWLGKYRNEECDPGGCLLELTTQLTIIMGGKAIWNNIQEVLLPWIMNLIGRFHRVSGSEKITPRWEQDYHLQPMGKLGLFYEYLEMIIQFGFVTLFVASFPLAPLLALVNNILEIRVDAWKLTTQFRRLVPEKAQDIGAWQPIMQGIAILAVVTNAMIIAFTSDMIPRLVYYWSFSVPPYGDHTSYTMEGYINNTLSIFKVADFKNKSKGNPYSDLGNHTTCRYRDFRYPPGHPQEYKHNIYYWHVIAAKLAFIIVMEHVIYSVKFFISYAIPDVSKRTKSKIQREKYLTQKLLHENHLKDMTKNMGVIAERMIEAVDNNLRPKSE

in vivo = conditions: sheep
all targeted strains = assay: Minimum Inhibitory Concentration (MIC) assay, all targeted strains; conditions: read-out: MIC against all targeted strains

Compound: CCN(CC)CCCC(C)Nc1ccnc2cc(Cl)ccc12 (stereo not shown) [chloroquine]
- EC50 (SARS-CoV-2): 1130 nM

Compound: O=C(Nc1ccc([N+](=O)[O-])cc1Cl)c1cc(Cl)ccc1O [niclosamide]
- bacterial load in repeated spot test, API in DMSO [1]: substantially decreased the bacterial load
- efficacy margin mean systemic exposure of human oral dose to IC90 [2]: 8 fold
- EC50 (SARS-CoV): < 100 nM
- effect in asthmatic mice (asthmatic mice): reduced mucus production and secretion, as well as bronchoconstriction
- inhibition of Cl- channel TMEM16A (TMEM16A): potent inhibitor
- inhibition of Cl- channel TMEM 116F (TMEM 116F): potent inhibitor
- Cmax (in vivo; systemic exposure Cmax (mean)): 577 ng/mL
- Cmax (in vivo; systemic exposure Cmax (range)): 217 to 803 ng/mL
- MIC (all targeted strains): ≤ 0.5 µg/mL

Compound: CC(=O)Oc1ccccc1C(=O)Nc1ncc([N+](=O)[O-])s1 [nitazoxanide]
- EC50 (SARS-CoV-2): 2120 nM

Compound: O=C(Nc1cc(Cl)cc(Cl)c1O)c1c(O)c(Cl)cc(Cl)c1Cl [oxyclozanide, Oxyclozanide]
- efficiency in reducing bacterial load ([1]; comparison among formulations): highest efficiency in reducing bacterial load of S. aureus
- bacterial load in repeated spot test, API in DMSO [1]: substantially decreased the bacterial load
